Test results: publication PMC6753678, “Fueling Open Innovation for Malaria Transmission-Blocking Drugs: Hundreds of Molecules Targeting Early Parasite Mosquito Stages” (Frontiers in Microbiology, 2019)
Where two headings read alike, the source gives them in different places.

Tests used:
[1] = tested on: 3D7-strain P. falciparum asexual parasites; assay: P. falciparum asexual growth inhibition assay (Pf GIA); type: cell-based, Plasmodium falciparum; details: dose response confirmation; read-out: Pf asexual growth inhibition assays IC50
Procedure, shortened: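 3D7 parasites at 0.25% parasitemia, 2% hematocrit were exposed to compounds in dose response for 72 h at 37°C under 5% CO2, 5% O2. Viability read as parasite LDH activity (nitro blue tetrazolium, A650) after freeze-thaw; inhibition scaled to chloroquine (50 μM) and DMSO controls, mean of three biological replicates.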

HepG2 cells = assay: HepG2 cytotoxicity assay; details: for Pb ODA (this manuscript) HepG2 cytoxicity: HepG2 cytotoxicity listed with the Pb ODA data set (this manuscript); for IC50: read-out: HepG2 cytotoxicity assay IC50, dose response confirmation
Procedure, shortened: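 Cells are plated at 2,500 per well on compound-treated plates in MEM containing 10% fetal bovine serum and 1% NEAA, then incubated 48 h at 37°C.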

[2] = tested on: P. berghei ookinete development; details: for % inhibition, Replicate A / % inhibition, Replicate B: primary screen at 1 μM
[3] = read-out: Pb ODA (this manuscript) IC50, P. berghei ookinete development assay, this manuscript
[4] = read-out: Pb Ookinete development assay IC50, dose response confirmation
[5] = HepG2 values of the three screens unified
[6] = read-out: Pb ODA IC50, this manuscript

SMILES: COc1nc2c(CCN3CCC(NCc4ccc5c(c4)NCCO5)CC3)c(Cl)cnc2cc1F.Cl [TCMDC-135768]
- IC50 [1]: 584 nM
- Pb ODA (this manuscript) HepG2 cytoxicity (HepG2 cells): 14.45 µM
- IC50 (HepG2 cells): 14400 nM
- Is compound selective in assay? Pb ODA active? [2]: 0 (key: 1: YES; 0: NO)
- % inhibition, Replicate A [2]: 14.93%
- % inhibition, Replicate B [2]: 54.54%
- IC50 [2, 3]: 3540 nM
- IC50 [2, 4]: 3540 nM

SMILES: Cc1[nH]c(C)c([N+](=O)[O-])c(=O)c1-c1ccc(Oc2ccccc2)cc1 [TCMDC-135779]
- IC50 [1]: 809 nM
- Pb ODA (this manuscript) HepG2 cytoxicity (HepG2 cells): 100.00 µM
- IC50 (HepG2 cells): 100000 nM
- Is compound selective in assay? Pb ODA active? [2]: 1 (key: 1: YES; 0: NO)
- % inhibition, Replicate A [2]: 85.12%
- % inhibition, Replicate B [2]: 87.09%
- IC50 [2, 4]: 540 nM

SMILES: Cc1[nH]c(C)c(-c2ccc(/C=C/c3ccccn3)cc2)c(=O)c1Cl [TCMDC-135787]
- IC50 [1]: 1260 nM
- Unified cytotox (HepG2 cells; [5]): 100.00 µM
- IC50 (HepG2 cells): 100000 nM
- Is compound selective in assay? Pb ODA active? ([2]; 1: YES, 0: NO): 1 (1: YES)
- % inhibition, Replicate A [2]: 50.60%
- % inhibition, Replicate B [2]: 51.03%
- IC50 [2, 4]: 1050 nM

SMILES: COc1ccc(CCc2ccc(-c3c(C)[nH]c(C)c(Cl)c3=O)cc2)cc1OC [TCMDC-135789]
- IC50 [1]: 119 nM
- Unified cytotox (HepG2 cells; [5]): 100.00 µM
- IC50 (HepG2 cells): 100000 nM
- Is compound selective in assay? Pb ODA active? ([2]; 1: YES, 0: NO): 1 (1: YES)
- % inhibition, Replicate A [2]: 97.42%
- % inhibition, Replicate B [2]: 111.57%
- IC50 [2, 6]: 280 nM
- IC50 [2, 4]: 277 nM

SMILES: Cc1[nH]c(C)c(-c2ccc(OCCCc3ccccn3)cc2)c(=O)c1Br.Cl [TCMDC-135795]
- IC50 [1]: 6.55 nM
- Pb ODA (this manuscript) HepG2 cytoxicity (HepG2 cells): 0.17 µM
- IC50 (HepG2 cells): 170 nM
- Is compound selective in assay? Pb ODA active? [2]: 0 (key: 1: YES; 0: NO)
- % inhibition, Replicate A [2]: 72.29%
- % inhibition, Replicate B [2]: 89.65%
- IC50 [2, 3]: 590 nM
- IC50 [2, 4]: 594 nM

SMILES: Cc1[nH]c(C)c(-c2ccc(OCc3ccccc3C(F)(F)F)nc2)c(=O)c1Br [TCMDC-135796]
- IC50 [1]: 36 nM
- HepG2 cytoxicity (Pb ODA, this manuscript) (HepG2 cells): 3.02 µM
- Unified cytotox (HepG2 cells; [5]): 3.02 µM
- IC50 (HepG2 cells): 3020 nM
- Is compound selective in assay? Pb ODA active? ([2]; 1: YES, 0: NO): 1 (1: YES)
- % inhibition, Replicate A [2]: 84.05%
- % inhibition, Replicate B [2]: 98.42%
- IC50 [2, 6]: 40 nM
- IC50 [2, 4]: 42 nM

SMILES: COc1nc2c(CCN3CC[C@H](NCc4ccc5c(c4)NC(=O)CO5)[C@H](O)C3)c(Cl)cnc2cc1F.Cl [TCMDC-135805]
- IC50 [1]: 1320 nM
- Pb ODA (this manuscript) HepG2 cytoxicity (HepG2 cells): 12.02 µM
- IC50 (HepG2 cells): 12000 nM
- Is compound selective in assay? Pb ODA active? [2]: 1 (key: 1: YES; 0: NO)
- % inhibition, Replicate A [2]: 46.55%
- % inhibition, Replicate B [2]: 63.06%
- IC50 [2, 4]: 770 nM

SMILES: Cc1[nH]c(C)c(-c2ccc(OCc3cc(C(F)(F)F)cc(C(F)(F)F)c3)nc2)c(=O)c1Cl [TCMDC-135814]
- IC50 [1]: 185 nM
- HepG2 cytoxicity (Pb ODA, this manuscript) (HepG2 cells): 1.66 µM
- Unified cytotox (HepG2 cells; [5]): 1.66 µM
- IC50 (HepG2 cells): 1660 nM
- Is compound selective in assay? Pb ODA active? ([2]; 1: YES, 0: NO): 1 (1: YES)
- % inhibition, Replicate A [2]: 68.02%
- % inhibition, Replicate B [2]: 98.05%
- IC50 [2, 6]: 160 nM
- IC50 [2, 4]: 161 nM

SMILES: Cc1[nH]c(C)c(-c2ccc(OCc3cc(C(F)(F)F)cc(C(F)(F)F)c3)nc2)c(=O)c1Br [TCMDC-135815]
- IC50 [1]: 279 nM
- HepG2 cytoxicity (Pb ODA, this manuscript) (HepG2 cells): 0.71 µM
- Unified cytotox (HepG2 cells; [5]): 0.71 µM
- IC50 (HepG2 cells): 710 nM
- Is compound selective in assay? Pb ODA active? ([2]; 1: YES, 0: NO): 0 (0: NO)
- % inhibition, Replicate A [2]: 74.97%
- % inhibition, Replicate B [2]: 105.72%
- IC50 [2, 6]: 120 nM
- IC50 [2, 4]: 122 nM

SMILES: CCCCCCCc1ccc(-c2c(C)[nH]c(C)c(Cl)c2=O)cn1 [TCMDC-135816]
- IC50 [1]: 355 nM
- HepG2 cytoxicity (Pb ODA, this manuscript) (HepG2 cells): 30.90 µM
- Unified cytotox (HepG2 cells; [5]): 30.90 µM
- IC50 (HepG2 cells): 30900 nM
- Is compound selective in assay? Pb ODA active? ([2]; 1: YES, 0: NO): 1 (1: YES)
- % inhibition, Replicate A [2]: 56.53%
- % inhibition, Replicate B [2]: 81.98%
- IC50 [2, 6]: 580 nM
- IC50 [2, 4]: 581 nM

SMILES: Cc1[nH]c(C)c(-c2ccc(-c3ccccc3C(F)(F)F)nc2)c(=O)c1Br [TCMDC-135881]
- IC50 [1]: 191 nM
- Unified cytotox (HepG2 cells; [5]): 100.00 µM
- IC50 (HepG2 cells): 100000 nM
- Is compound selective in assay? Pb ODA active? ([2]; 1: YES, 0: NO): 1 (1: YES)
- % inhibition, Replicate A [2]: 87.53%
- % inhibition, Replicate B [2]: 97.69%
- IC50 [2, 6]: 970 nM
- IC50 [2, 4]: 973 nM

SMILES: Cc1[nH]c(C)c(-c2ccc(-c3cccc(C(F)(F)F)c3)nc2)c(=O)c1Br [TCMDC-135911]
- IC50 [1]: 45 nM
- Unified cytotox (HepG2 cells; [5]): 100.00 µM
- IC50 (HepG2 cells): 100000 nM
- Is compound selective in assay? Pb ODA active? ([2]; 1: YES, 0: NO): 1 (1: YES)
- % inhibition, Replicate A [2]: 105.47%
- % inhibition, Replicate B [2]: 112.19%
- IC50 [2, 4]: 400 nM

SMILES: Cc1[nH]c(C)c(-c2ccc(-c3ccc(F)cc3)nc2)c(=O)c1Br [TCMDC-135925]
- IC50 [1]: 319 nM
- HepG2 cytoxicity (Pb ODA, this manuscript) (HepG2 cells): 33.11 µM
- Unified cytotox (HepG2 cells; [5]): 33.11 µM
- IC50 (HepG2 cells): 33100 nM
- Is compound selective in assay? Pb ODA active? ([2]; 1: YES, 0: NO): 1 (1: YES)
- % inhibition, Replicate A [2]: 61.34%
- % inhibition, Replicate B [2]: 86.73%
- IC50 [2, 6]: 540 nM
- IC50 [2, 4]: 542 nM

SMILES: Cc1[nH]c(C)c(-c2ccc(-c3ccccc3F)nc2)c(=O)c1Br [TCMDC-135926]
- IC50 [1]: 222 nM
- Unified cytotox (HepG2 cells; [5]): 100.00 µM
- IC50 (HepG2 cells): 100000 nM
- Is compound selective in assay? Pb ODA active? ([2]; 1: YES, 0: NO): 1 (1: YES)
- % inhibition, Replicate A [2]: 85.66%
- % inhibition, Replicate B [2]: 106.09%
- IC50 [2, 6]: 460 nM
- IC50 [2, 4]: 461 nM

SMILES: Cc1[nH]c(C)c(-c2ccc(-c3ccccc3F)nc2)c(=O)c1Cl [TCMDC-135927]
- IC50 [1]: 339 nM
- Unified cytotox (HepG2 cells; [5]): 100.00 µM
- IC50 (HepG2 cells): 100000 nM
- Is compound selective in assay? Pb ODA active? ([2]; 1: YES, 0: NO): 1 (1: YES)
- % inhibition, Replicate A [2]: 86.73%
- % inhibition, Replicate B [2]: 100.97%
- IC50 [2, 6]: 430 nM
- IC50 [2, 4]: 432 nM

SMILES: COc1cc(Nc2ncc3c(C)nc(-c4cccc(Nc5ccc(CN6CCS(=O)(=O)CC6)cc5)c4)n3n2)cc(OC)c1OC [TCMDC-136003]
- IC50 [1]: 1400 nM
- IC50 (HepG2 cells): 30900 nM
- Unified cytotox (HepG2 cells; unified HepG2 value across the three screens): 30.90 µM
- Is compound selective in assay? Pb ODA active? ([2]; 1: YES, 0: NO): 1 (1: YES)
- % inhibition, Replicate A [2]: 93.24%
- % inhibition, Replicate B [2]: 100.90%
- IC50 [2, 6]: 180 nM
- IC50 [2, 4]: 175 nM

SMILES: Cc1noc(C)c1-c1ccc2c(Nc3ccc(Cl)cc3)c(C(N)=O)cnc2c1.Cl [TCMDC-136010]
- IC50 [1]: 53 nM
- Pb ODA (this manuscript) HepG2 cytoxicity (HepG2 cells): 4.84 µM
- IC50 (HepG2 cells): 4840 nM
- Is compound selective in assay? Pb ODA active? [2]: 0 (key: 1: YES; 0: NO)
- % inhibition, Replicate A [2]: 77.30%
- % inhibition, Replicate B [2]: 54.77%
- IC50 [2, 3]: 6660 nM
- IC50 [2, 4]: 6660 nM

SMILES: Cc1[nH]c(C)c(-c2ccc(-c3ccc(C(F)(F)F)cc3C(F)(F)F)nc2)c(=O)c1Br [TCMDC-136013]
- IC50 [1]: 154 nM
- HepG2 cytoxicity (Pb ODA, this manuscript) (HepG2 cells): 7.41 µM
- Unified cytotox (HepG2 cells; [5]): 7.41 µM
- IC50 (HepG2 cells): 7410 nM
- Is compound selective in assay? Pb ODA active? ([2]; 1: YES, 0: NO): 1 (1: YES)
- % inhibition, Replicate A [2]: 94.49%
- % inhibition, Replicate B [2]: 93.70%
- IC50 [2, 6]: 190 nM
- IC50 [2, 4]: 185 nM

SMILES: Cc1[nH]c(C)c(-c2ccc(CCc3cccc(C(F)(F)F)c3)nc2)c(=O)c1Cl [TCMDC-136014]
- IC50 [1]: 93 nM
- HepG2 cytoxicity (Pb ODA, this manuscript) (HepG2 cells): 7.08 µM
- Unified cytotox (HepG2 cells; [5]): 7.08 µM
- IC50 (HepG2 cells): 7080 nM
- Is compound selective in assay? Pb ODA active? ([2]; 1: YES, 0: NO): 1 (1: YES)
- % inhibition, Replicate A [2]: 91.00%
- % inhibition, Replicate B [2]: 104.63%
- IC50 [2, 6]: 120 nM
- IC50 [2, 4]: 123 nM
